# In patent US12369578B2, “Use of a nematicide composition” (DESARROLLO AGRICOLA Y MINERO, S.A., priority 2019, dated 2025):
# Assays:
# M. incognita [1] = test: Juvenile (J2) mortality, laboratory test in sterile water; format: in vivo; settings: all concentrations (0.025%, 0.05%, 0.1%), in less than 24 h
# Excerpt: (§1) The aim of the protocol was to evaluate the nematicidal efficacy of the formulation and of the active ingredients, cinnamic aldehyde and terpene alcohol, separately. For this trial M. incognita and M. javanica nematodes were used.
# (§2) • 1. Untreated control specimen: Eggs or juvenile nematodes in sterile water. • 2. Eggs or juveniles with 0.025% of the formulation in sterile water. • 3. Eggs or juveniles with 0.05% of the formulation in sterile water. • 4. Eggs or juveniles with 0.1% of the formulation in sterile water. • 5. Eggs or juveniles with 0.025% of terpene alcohol in sterile water plus innocuous solvent. • 6. Eggs or juveniles with 0.05% of terpene alcohol in sterile water plus innocuous solvent. • 7. Eggs or juveniles with 0.1% of terpene alcohol in sterile water plus innocuous solvent. • 8. Eggs or juveniles with 0.025% of cinnamic aldehyde in sterile water plus innocuous solvent. • 9. Eggs or juveniles with 0.05% of cinnamic aldehyde in sterile water plus innocuous solvent. • 10. Eggs or juveniles with 0.1% of cinnamic aldehyde in sterile water plus innocuous solvent. Results:
# (§3) The treatments with juveniles hatched at 0 h, 24 h, 48 h and 72 h. The number of hatched eggs was determined approximately every 72 h for 3-4 weeks. […]
# M. incognita [2] = test: Egg hatching, laboratory test in sterile water; format: in vivo; settings: M. incognita eggs; 0.025%, 0.05%, 0.1%; counts about every 72 h for 3-4 weeks
# Excerpt: as §1, §2, §3
smiles,measurement,setting,value
"O=C/C=C/c1ccccc1 [cinnamic aldehyde, (2E)-3-phenylprop-2-enal]",mortality of J2,M. incognita [1],100%
same,egg hatching,M. incognita [2],inhibited the hatching of juveniles
